The results in this text go back to US9273040B2 (Merck Sharp & Dohme Corp., priority 2011, dated 2016).

Experiment [1] concerns the target T1, human Nav1.5 channels stably expressed in HEK 293 cells (Homo sapiens, UniProt Q14524).
T1 construct: expressed in transfected cells
Put plainly: PatchXpress 7000 automated patch-clamp, sodium current. Type of experiment: cell-based. Particulars: selectivity over Nav1.5. In outline:
(§1)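 IC50 values came from Hill-equation fits of rundown-corrected inhibition. PatchXpress recordings at 22° C held cells 20 mV negative to V0.5 inact and applied 10 Hz trains of 30 ms steps to −20 mV (Nav1.7) or an 8000 ms prepulse 7 mV positive to V0.5 inact. […]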
For orientation: Patch clamp records ionic current or voltage across a cell membrane.

Experiment [2] concerns the target T2, human Nav1.7 channels stably expressed in HEK 293 cells (Homo sapiens, UniProt Q15858).
T2 construct: expressed in transfected cells
The experiment is described as above. The experiment is classed as cell-based. The conditions noted are these: 22° C. The procedure, abridged: as §1

The mark [3] stands for this setting: read-out: potency for the Nav 1.7 sodium ion channel (as measured by PatchXpress).

Like-named read-outs stand apart in the source and are kept apart here.

T1 sequence (Q14524 whole entry): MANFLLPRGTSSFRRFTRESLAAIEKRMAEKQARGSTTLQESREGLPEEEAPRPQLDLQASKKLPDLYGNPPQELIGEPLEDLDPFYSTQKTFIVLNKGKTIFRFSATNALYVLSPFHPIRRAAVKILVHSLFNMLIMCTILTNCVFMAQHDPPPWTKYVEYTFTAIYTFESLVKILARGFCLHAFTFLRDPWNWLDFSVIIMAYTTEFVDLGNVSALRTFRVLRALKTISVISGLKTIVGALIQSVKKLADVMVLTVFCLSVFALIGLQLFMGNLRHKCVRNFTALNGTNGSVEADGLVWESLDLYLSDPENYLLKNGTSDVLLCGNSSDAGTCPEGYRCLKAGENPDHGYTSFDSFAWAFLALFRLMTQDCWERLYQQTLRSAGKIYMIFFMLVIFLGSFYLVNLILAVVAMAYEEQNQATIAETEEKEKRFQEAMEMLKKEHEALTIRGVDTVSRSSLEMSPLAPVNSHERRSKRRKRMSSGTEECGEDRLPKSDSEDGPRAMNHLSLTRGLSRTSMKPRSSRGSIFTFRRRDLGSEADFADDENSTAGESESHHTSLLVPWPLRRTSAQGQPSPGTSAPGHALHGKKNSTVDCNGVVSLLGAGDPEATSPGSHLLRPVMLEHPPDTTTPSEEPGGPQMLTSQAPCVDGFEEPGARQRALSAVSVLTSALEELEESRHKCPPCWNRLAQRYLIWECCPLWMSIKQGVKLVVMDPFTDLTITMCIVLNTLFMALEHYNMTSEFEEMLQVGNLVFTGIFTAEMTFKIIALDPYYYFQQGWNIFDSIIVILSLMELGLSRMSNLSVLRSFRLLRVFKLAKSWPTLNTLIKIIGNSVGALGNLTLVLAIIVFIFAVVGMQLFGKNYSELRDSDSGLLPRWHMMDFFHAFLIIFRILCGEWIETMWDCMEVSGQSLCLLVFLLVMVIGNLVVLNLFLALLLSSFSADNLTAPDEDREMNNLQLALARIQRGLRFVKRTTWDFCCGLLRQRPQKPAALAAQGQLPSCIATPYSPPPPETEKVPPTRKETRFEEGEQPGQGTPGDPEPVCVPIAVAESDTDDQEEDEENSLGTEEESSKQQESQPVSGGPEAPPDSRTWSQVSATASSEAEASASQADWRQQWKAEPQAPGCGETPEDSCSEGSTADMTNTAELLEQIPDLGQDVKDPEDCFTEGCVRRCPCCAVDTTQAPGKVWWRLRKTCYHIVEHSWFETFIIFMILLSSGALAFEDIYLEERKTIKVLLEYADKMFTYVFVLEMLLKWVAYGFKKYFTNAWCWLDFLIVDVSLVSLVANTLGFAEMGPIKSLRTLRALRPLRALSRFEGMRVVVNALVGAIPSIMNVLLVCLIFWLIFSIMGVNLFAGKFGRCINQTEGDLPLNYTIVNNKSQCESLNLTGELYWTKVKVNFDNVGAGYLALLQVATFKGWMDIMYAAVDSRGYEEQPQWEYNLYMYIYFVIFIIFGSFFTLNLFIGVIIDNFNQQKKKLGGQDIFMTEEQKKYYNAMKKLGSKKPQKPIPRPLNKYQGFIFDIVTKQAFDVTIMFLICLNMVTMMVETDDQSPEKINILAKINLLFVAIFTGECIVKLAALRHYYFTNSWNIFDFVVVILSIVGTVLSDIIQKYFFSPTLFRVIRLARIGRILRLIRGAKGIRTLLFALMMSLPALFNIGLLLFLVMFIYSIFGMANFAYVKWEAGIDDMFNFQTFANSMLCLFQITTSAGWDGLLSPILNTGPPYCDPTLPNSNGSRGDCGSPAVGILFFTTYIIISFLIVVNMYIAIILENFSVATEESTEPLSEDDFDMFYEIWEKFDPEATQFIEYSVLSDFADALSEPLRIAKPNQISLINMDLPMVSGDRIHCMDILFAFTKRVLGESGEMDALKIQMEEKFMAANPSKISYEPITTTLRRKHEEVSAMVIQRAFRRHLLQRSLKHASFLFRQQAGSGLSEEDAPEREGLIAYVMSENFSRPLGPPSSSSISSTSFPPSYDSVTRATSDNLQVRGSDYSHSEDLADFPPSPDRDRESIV
T2 sequence (Q15858 whole entry): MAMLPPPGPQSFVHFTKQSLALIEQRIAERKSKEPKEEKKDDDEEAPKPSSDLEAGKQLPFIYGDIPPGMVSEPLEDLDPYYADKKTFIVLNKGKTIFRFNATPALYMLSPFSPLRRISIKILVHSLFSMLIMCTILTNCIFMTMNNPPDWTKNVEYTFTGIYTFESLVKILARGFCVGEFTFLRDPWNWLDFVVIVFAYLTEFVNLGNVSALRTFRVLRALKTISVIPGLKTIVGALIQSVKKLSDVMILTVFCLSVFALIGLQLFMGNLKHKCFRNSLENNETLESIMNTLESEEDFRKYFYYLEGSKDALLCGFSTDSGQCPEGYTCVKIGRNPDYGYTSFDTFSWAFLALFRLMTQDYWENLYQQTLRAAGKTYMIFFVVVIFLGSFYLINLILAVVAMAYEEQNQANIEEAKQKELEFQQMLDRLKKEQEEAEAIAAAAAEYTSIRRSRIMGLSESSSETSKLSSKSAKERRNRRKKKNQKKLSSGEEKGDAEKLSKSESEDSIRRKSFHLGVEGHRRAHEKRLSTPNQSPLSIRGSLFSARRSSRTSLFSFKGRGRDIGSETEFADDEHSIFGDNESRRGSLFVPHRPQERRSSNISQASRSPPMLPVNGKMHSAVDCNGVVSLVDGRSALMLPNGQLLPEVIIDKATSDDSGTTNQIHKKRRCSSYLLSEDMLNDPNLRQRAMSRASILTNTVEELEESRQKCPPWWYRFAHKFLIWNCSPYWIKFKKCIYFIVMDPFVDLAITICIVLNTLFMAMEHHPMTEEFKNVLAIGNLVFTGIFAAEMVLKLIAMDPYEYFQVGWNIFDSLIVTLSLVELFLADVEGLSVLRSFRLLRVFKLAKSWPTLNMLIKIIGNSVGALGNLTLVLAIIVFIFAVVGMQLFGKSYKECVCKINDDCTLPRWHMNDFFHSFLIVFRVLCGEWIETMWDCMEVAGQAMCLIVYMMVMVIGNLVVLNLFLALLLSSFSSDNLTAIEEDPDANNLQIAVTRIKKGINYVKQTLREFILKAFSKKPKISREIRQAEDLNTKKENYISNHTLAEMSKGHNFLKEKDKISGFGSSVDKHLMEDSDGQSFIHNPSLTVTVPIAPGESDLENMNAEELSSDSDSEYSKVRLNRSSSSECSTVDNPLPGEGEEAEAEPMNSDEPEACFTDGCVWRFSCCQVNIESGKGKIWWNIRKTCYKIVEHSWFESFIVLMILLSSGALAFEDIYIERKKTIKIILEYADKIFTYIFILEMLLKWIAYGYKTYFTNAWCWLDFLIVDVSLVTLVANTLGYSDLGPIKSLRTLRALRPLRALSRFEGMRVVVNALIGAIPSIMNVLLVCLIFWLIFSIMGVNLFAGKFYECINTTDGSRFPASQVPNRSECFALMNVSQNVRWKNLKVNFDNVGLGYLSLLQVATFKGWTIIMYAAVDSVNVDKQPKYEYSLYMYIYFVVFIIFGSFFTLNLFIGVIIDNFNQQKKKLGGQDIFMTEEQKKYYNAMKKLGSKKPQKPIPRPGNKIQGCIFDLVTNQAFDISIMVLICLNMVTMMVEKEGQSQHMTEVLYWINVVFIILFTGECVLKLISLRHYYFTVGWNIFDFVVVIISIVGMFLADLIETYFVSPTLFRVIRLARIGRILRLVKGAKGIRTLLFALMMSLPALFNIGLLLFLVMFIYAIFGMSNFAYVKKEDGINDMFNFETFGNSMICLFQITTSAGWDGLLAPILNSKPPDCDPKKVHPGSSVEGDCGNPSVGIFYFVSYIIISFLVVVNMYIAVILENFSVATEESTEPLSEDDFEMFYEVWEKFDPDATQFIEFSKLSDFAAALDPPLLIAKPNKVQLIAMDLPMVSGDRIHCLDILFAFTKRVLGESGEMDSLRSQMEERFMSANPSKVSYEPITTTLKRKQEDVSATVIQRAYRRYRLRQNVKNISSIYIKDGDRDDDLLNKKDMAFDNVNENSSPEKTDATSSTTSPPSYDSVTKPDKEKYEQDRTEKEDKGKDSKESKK

Turning to `CC(c1cccc(-c2cccnc2)c1)n1c(=O)oc2cc(S(=O)(=O)Nc3ncns3)c(F)cc21` (centres unmarked) [Compound 29-4, 5-fluoro-2-oxo-3-[1-(3-pyridin-3-ylphenyl)ethyl]-N-1,2,4-thiadiazol-5-yl-2,3-dihydro-1,3-benzoxazole-6-sulfonamide], the “ratio of Nav 1.5:Nav 1.7 potency, determined by PatchXpress measurement” value (“ratio of Nav 1.5:Nav 1.7 potency” below) in experiment [1] was found to be 57. In experiment [2] (setting [3]), the IC50 stood at 162 nM.
The corresponding values for `C[C@H](c1cccc(C#CCN)c1)n1c(=O)oc2cc(S(=O)(=O)Nc3ncns3)c(F)cc21` [Compound 30-3, (R)-3-(1-(3-(3-aminoprop-1-yn-1-yl)phenyl)ethyl)-5-fluoro-2-oxo-N-(1,2,4-thiadiazol-5-yl)-2,3-dihydrobenzo[d]oxazole-6-sulfonamide] are 289 and 28 nM.
For the molecule `C[C@H](c1cccc(C#CC2(N)CCCCC2)c1)n1c(=O)oc2cc(S(=O)(=O)Nc3ncns3)c(F)cc21` [Compound 30-4], the “ratio of Nav 1.5:Nav 1.7 potency” value in experiment [1] is reported as 309. In addition, in experiment [2] (setting [3]), the IC50 is 10 nM.
Taken in the same sequence, the figures for `C[C@H](c1ccccc1C1CNC1)n1c(=O)oc2cc(S(=O)(=O)Nc3ncns3)c(F)cc21` [Compound 31-1, (R)-3-(1-(2-(azetidin-3-yl)phenyl)ethyl)-5-fluoro-2-oxo-N-(1,2,4-thiadiazol-5-yl)-2,3-dihydrobenzo[d]oxazole-6-sulfonamide] were 603 and 15 nM.
The corresponding values for `C[C@H](c1ccccc1C1(O)CNC1)n1c(=O)oc2cc(S(=O)(=O)Nc3ncns3)c(F)cc21` [Compound 32-4, (R)-5-fluoro-3-(1-(2-(3-hydroxyazetidin-3-yl)phenyl)ethyl)-2-oxo-N-(1,2,4-thiadiazol-5-yl)-2,3-dihydrobenzo[d]oxazole-6-sulfonamide] are 110 and 34 nM.
The corresponding values for `C[C@H](c1ccccc1C1(F)CNC1)n1c(=O)oc2cc(S(=O)(=O)Nc3ncns3)c(F)cc21` [Compound 32-6, (R)-5-Fluoro-3-(1-(2-(3-fluoroazetidin-3-yl)phenyl)ethyl)-2-oxo-N-(1,2,4-thiadiazol-5-yl)-2,3-dihydrobenzo[d]oxazole-6-sulfonamide] are 1333 and 18 nM.
Consider `C[C@H](c1ccccc1CCCN)n1c(=O)oc2cc(S(=O)(=O)Nc3ncns3)c(F)cc21` [Compound 33-7, (R)-3-(1-(2-(3-Aminopropyl)phenyl)ethyl)-5-fluoro-2-oxo-N-(1,2,4-thiadiazol-5-yl)-2,3-dihydrobenzo[d]oxazole-6-sulfonamide], for which, in experiment [1], the “ratio of Nav 1.5:Nav 1.7 potency” value is recorded as 166. Moreover, in experiment [2] (setting [3]), the IC50 was determined as 51 nM.
Taken in the same sequence, the figures for `C[C@@H](c1ccccc1CCCN)n1c(=O)oc2cc(S(=O)(=O)Nc3ncns3)c(F)cc21` [Compound 33-8] were 179 and 168 nM.
`C[C@H](c1ccccc1C1=CCNCC1)n1c(=O)oc2cc(S(=O)(=O)Nc3ncns3)c(Cl)cc21.Cl` [Compound 34-6, (R)-5-chloro-2-oxo-3-(1-(2-(1,2,3,6-tetrahydropyridin-4-yl)phenyl)ethyl)-N-(1,2,4-thiadiazol-5-yl)-2,3-dihydrobenzo[d]oxazole-6-sulfonamide hydrochloride]: the “ratio of Nav 1.5:Nav 1.7 potency” value in experiment [1] came to 1200. The same molecule yielded an IC50 in experiment [2] (potency for the Nav 1.7 sodium ion channel (as measured by PatchXpress)) of 25 nM.
`C[C@H](c1ccccc1C#CCN)n1c(=O)oc2cc(S(=O)(=O)Nc3ncns3)c(Cl)cc21` [Compound 34-8, 3-{(1R)-1-[2-(3-aminoprop-1-yn-1-yl)phenyl]ethyl}-5-chloro-2-oxo-N-1,2,4-thiadiazol-5-yl-2,3-dihydro-1,3-benzoxazole-6-sulfonamide]: the “ratio of Nav 1.5:Nav 1.7 potency” value in experiment [1] amounted to 40. Also, the IC50 in experiment [2] (setting [3]) amounted to 40 nM.
In the case of `C[C@H](c1cccc2c1CNCC2)n1c(=O)oc2cc(S(=O)(=O)Nc3ncns3)c(Br)cc21` [Compound 35-5, (R)-5-bromo-2-oxo-3-(1-(1,2,3,4-tetrahydroisoquinolin-8-yl)ethyl)-N-(1,2,4-thiadiazol-5-yl)-2,3-dihydrobenzo[d]oxazole-6-sulfonamide], the “ratio of Nav 1.5:Nav 1.7 potency” value in experiment [1] came to 932. For the same molecule, the IC50 in experiment [2] (setting [3]) amounted to 16 nM.
The corresponding values for `C[C@H](c1ccccc1C#CCN)n1c(=O)oc2cc(S(=O)(=O)Nc3ncns3)c(Br)cc21` [Compound 35-6, 3-{(1R)-1-[2-(3-aminoprop-1-yn-1-yl)phenyl]ethyl}-5-bromo-2-oxo-N-1,2,4-thiadiazol-5-yl-2,3-dihydro-1,3-benzoxazole-6-sulfonamide] are 334 and 27 nM.
The corresponding values for `C[C@H](c1ccccc1C1=CCN(S(C)(=O)=O)CC1)n1c(=O)oc2cc(S(=O)(=O)Nc3ncns3)c(Cl)cc21` [Compound 36-1, (R)-5-chloro-3-(1-(2-(1-(methylsulfonyl)-1,2,3,6-tetrahydropyridin-4-yl)phenyl)ethyl)-2-oxo-N-(1,2,4-thiadiazol-5-yl)-2,3-dihydrobenzo[d]oxazole-6-sulfonamide] are 54 and 527 nM.
The corresponding values for `C[C@H](c1ccccc1C1=CCN(S(C)(=O)=O)CC1)n1c(=O)oc2cc(S(=O)(=O)Nc3ncns3)c(F)cc21` [Compound 36-3, 5-fluoro-3-[(1R)-1-{2-[1-(methylsulfonyl)-1,2,3,6-tetrahydropyridin-4-yl]phenyl}ethyl]-2-oxo-N-1,2,4-thiadiazol-5-yl-2,3-dihydro-1,3-benzoxazole-6-sulfonamide] are 88 and 255 nM.
Take `C[C@H](c1ccccc1C#CCNS(C)(=O)=O)n1c(=O)oc2cc(S(=O)(=O)Nc3ncns3)c(Br)cc21` [Compound 36-4, 5-bromo-3-[(1R)-1-(2-{3-[(methylsulfonyl)amino]prop-1-yn-1-yl}phenyl)ethyl]-2-oxo-N-1,2,4-thiadiazol-5-yl-2,3-dihydro-1,3-benzoxazole-6-sulfonamide]: in experiment [1], the “ratio of Nav 1.5:Nav 1.7 potency” value worked out at 36. Also, in experiment [2] (setting [3]), the IC50 stood at 169 nM.
Regarding `C[C@H](c1cccc2c1CN(S(C)(=O)=O)CC2)n1c(=O)oc2cc(S(=O)(=O)Nc3ncns3)c(F)cc21` [Compound 36-5, 5-fluoro-3-{(1R)-1-[2-(methylsulfonyl)-1,2,3,4-tetrahydroisoquinolin-8-yl]ethyl}-2-oxo-N-1,2,4-thiadiazol-5-yl-2,3-dihydro-1,3-benzoxazole-6-sulfonamide], in experiment [1], the “ratio of Nav 1.5:Nav 1.7 potency” value is 35. Also, the IC50 in experiment [2] (setting [3]) came out at 155 nM.
Consider `C[C@H](c1ccccc1C#CCNS(C)(=O)=O)n1c(=O)oc2cc(S(=O)(=O)Nc3ncns3)c(Cl)cc21` [Compound 36-6, 5-chloro-3-[(1R)-1-(2-{3-[(methylsulfonyl)amino]prop-1-yn-1-yl}phenyl)ethyl]-2-oxo-N-1,2,4-thiadiazol-5-yl-2,3-dihydro-1,3-benzoxazole-6-sulfonamide], for which, in experiment [1], the “ratio of Nav 1.5:Nav 1.7 potency” value is 175. Also, in experiment [2] (setting [3]), the IC50 was determined as 121 nM.
The corresponding values for `C[C@H](c1cccc2c1CC(NS(C)(=O)=O)CC2)n1c(=O)oc2cc(S(=O)(=O)Nc3ncns3)c(F)cc21` (stereo partly drawn) [Compound 36-7, 5-fluoro-3-[(1R)-1-{7-[(methylsulfonyl)amino]-5,6,7,8-tetrahydronaphthalen-1-yl)ethyl]-2-oxo-N-1,2,4-thiadiazol-5-yl-2,3-dihydro-1,3-benzoxazole-6-sulfonamide] are 107 and 27 nM.
With `O=c1oc2cc(S(=O)(=O)Nc3ncns3)c(F)cc2n1[C@H](CCF)c1ccccc1` [Compound 37-3], the “ratio of Nav 1.5:Nav 1.7 potency” value in experiment [1] was found to be 39. For the same molecule, in experiment [2] (setting [3]), the IC50 was 132 nM.
`CCc1cc2c(cc1S(=O)(=O)Nc1ncns1)oc(=O)n2[C@H](C)c1ccccc1` [Compound 38-2, 5-ethyl-2-oxo-3-[(1R)-1-phenylethyl]-N-1,2,4-thiadiazol-5-yl-2,3-dihydro-1,3-benzoxazole-6-sulfonamide]: the “ratio of Nav 1.5:Nav 1.7 potency” value in experiment [1] was determined as 17. Moreover, the IC50 in experiment [2] (setting [3]) amounted to 94 nM.
`Cc1cc2c(cc1S(=O)(=O)Nc1ncns1)oc(=O)n2[C@H](C)c1ccccc1` [Compound 38-3]: the “ratio of Nav 1.5:Nav 1.7 potency” value in experiment [1] is given as 37. Also, the IC50 in experiment [2] (setting [3]) is 43 nM.
In the case of `Nc1ccc2c(c1)C(n1c(=O)oc3cc(S(=O)(=O)Nc4ncns4)c(F)cc31)CCC2` (centres unmarked) [Compound 39-3], the “ratio of Nav 1.5:Nav 1.7 potency” value in experiment [1] stood at 1196. Besides, the IC50 in experiment [2] (setting [3]) is 41 nM.
As to `O=c1oc2cc(S(=O)(=O)Nc3ncns3)c(F)cc2n1C1CC2(COC2)Oc2ccccc21` (centres unmarked) [Compound 39-4, 3-(3,4-dihydrospiro[chromene-2,3′-oxetan]-4-yl)-5-fluoro-2-oxo-N-1,2,4-thiadiazol-5-yl-2,3-dihydro-1,3-benzoxazole-6-sulfonamide], in experiment [1], the “ratio of Nav 1.5:Nav 1.7 potency” value is 58. For the same molecule, in experiment [2] (setting [3]), the IC50 is 312 nM.
In the case of `Cc1cccc2c1CCCC2n1c(=O)oc2cc(S(=O)(=O)Nc3ncns3)c(F)cc21` (centres unmarked) [Compound 39-5, 5-fluoro-3-(5-methyl-1,2,3,4-tetrahydronaphthalen-1-yl)-2-oxo-N-1,2,4-thiadiazol-5-yl-2,3-dihydro-1,3-benzoxazole-6-sulfonamide], in experiment [1], the “ratio of Nav 1.5:Nav 1.7 potency” value was 14. In addition, the IC50 in experiment [2] (setting [3]) is 261 nM.
As for `O=c1oc2cc(S(=O)(=O)Nc3ncns3)c(F)cc2n1C1CCOc2ccccc21` (centres unmarked) [Compound 39-6, 3-(3,4-dihydro-2H-chromen-4-yl)-5-fluoro-2-oxo-N-1,2,4-thiadiazol-5-yl-2,3-dihydro-1,3-benzoxazole-6-sulfonamide], the “ratio of Nav 1.5:Nav 1.7 potency” value in experiment [1] is 110. In experiment [2] (setting [3]), the IC50 stood at 221 nM.
